Target: human BCL6 BTB domain (Trx-6×His-BCL6) / BCOR-AF633 peptide (Homo sapiens (Human), UniProt P41182)
Experiment: HTRF assay
Type: binding
Details: 1 nM Trx-6×His-BCL6, 300 nM BCOR-AF633 peptide, 2 hours incubation
Description: The % inhibition at each concentration was calculated by normalising FRET ratio to the appropriate high (DMSO with all reagents) and low (DMSO without BCL6) controls.

Row | Compound | HTRF avg pIC50 (1 nM)
1 | C[C@@H]1C[C@H](O)CN(c2ncc(Cl)c(Nc3ccc4c(c3)c3c(c(=O)n4C)OCC(F)(F)[C@H](C4CC4)N3)n2)C1 (single isomer, unassigned) [Example 13e, (S)-10-((5-chloro-2-((3S,5R)-3-hydroxy-5-methylpiperidin-1-yl)pyrimidin-4-yl)amino)-2-cyclopropyl-3,3-difluoro-7-methyl-1,2,3,4-tetrahydro-[1,4]oxazepino[2,3-c]quinolin-6(7H)-one or (S)-10-((5-chloro-2-((3R,5S)-3-hydroxy-5-methylpiperidin-1-yl)pyrimidin-4-yl)amino)-2-cyclopropyl-3,3-difluoro-7-methyl-1,2,3,4-tetrahydro-[1,4]oxazepino[2,3-c]quinolin-6(7H)-one] | 8.60
2 | CN1CC2(C1)CN(c1ncc(Cl)c(Nc3ccc4c(c3)c3c(c(=O)n4C)OCC(F)(F)[C@H](C4CC4)N3)n1)C2 [Example 13g, (S)-10-((5-chloro-2-(6-methyl-2,6-diazaspiro[3.3]heptan-2-yl)pyrimidin-4-yl)amino)-2-cyclopropyl-3,3-difluoro-7-methyl-1,2,3,4-tetrahydro-[1,4]oxazepino[2,3-c]quinolin-6(7H)-one: formic acid (1:2)] | 8.50
3 | Cn1c(=O)c2c(c3cc(Nc4ccnc(Cl)c4C#N)ccc31)NC(C1CC1)COC2=O (stereo not shown) [Example 6c, 2-chloro-4-((2-cyclopropyl-7-methyl-5,6-dioxo-1,2,3,5,6,7-hexahydro-[1,4]oxazepino[6,5-c]quinolin-10-yl)amino)nicotinonitrile] | 6.71
4 | Cn1c(=O)c2c(c3cc(Nc4nc(N5CCC(F)(F)[C@@H](O)C5)ncc4Cl)ccc31)N[C@@H](C1CC1)CCO2 (single isomer, unassigned) [Example 12z, (R)-10-((5-chloro-2-((S)-4,4-difluoro-3-hydroxypiperidin-1-yl)pyrimidin-4-yl)amino)-2-cyclopropyl-7-methyl-1,2,3,4-tetrahydro-[1,4]oxazepino[2,3-c]quinolin-6(7H)-one or (R)-10-((5-chloro-2((R)-4,4-difluoro-3-hydroxypiperidin-1-yl)pyrimidin-4-yl)amino)-2-cyclopropyl-7-methyl-1,2,3,4-tetrahydro-[1,4]oxazepino[2,3-c]quinolin-6(7H)-one] | 7.52
5 | C[C@H]1COC(=O)c2c(c3cc(Nc4nc(N5CCCC5=O)ncc4Cl)ccc3n(C)c2=O)N1 [Example 8i, (S)-10-((5-chloro-2-(2-oxopyrrolidin-1-yl)pyrimidin-4-yl)amino)-2,7-dimethyl-2,3-dihydro-[1,4]oxazepino[6,5-c]quinoline-5,6(1H,7H)-dione] | 6.23
6 | (R)-10-((5-chloro-2-((R)-4,4-difluoro-3- methylpiperidin-1-yl)pyrimidin-4-yl)amino)-2-cyclopropyl-7- methyl-1,2,3,4-tetrahydro-[1,4]oxazepino[2,3-c]quinolin- 6(7H)-one or (R)-10-((5-chloro-2-((S)-4,4-difluoro-3- methylpiperidin-1-yl)pyrimidin-4-yl)amino)-2-cyclopropyl- 7-methyl-1,2,3,4-tetrahydro-[1,4]oxazepino[2,3-c]quinolin- 6(7H)-one [Example 14b] | 6.98
7 | CC1CSc2c(c3cc(Nc4ccnc(Cl)c4C#N)ccc3n(C)c2=O)N1 (stereo not shown) [Example 1t, 2-chloro-4-((2,6-dimethyl-5-oxo-2,3,5,6-tetrahydro-1H-[1,4]thiazino[2,3-c]quinolin-9-yl)amino)nicotinonitrile] | 6.00
8 | C[C@H]1COC(=O)c2c(c3cc(Nc4nc(N5CCC(C(=O)N(C)C)CC5)ncc4Cl)ccc3n(C)c2=O)N1 [Example 8d, (S)-1-(5-chloro-4-((2,7-dimethyl-5,6-dioxo-1,2,3,5,6,7-hexahydro-[1,4]oxazepino[6,5-c]quinolin-10-yl)amino)pyrimidin-2-yl)-N,N-dimethylpiperidine-4-carboxamide] | 6.78
9 | (S)-10-((5-chloro-2-((3R,5S)-3-hydroxy-5- methylpiperidin-1-yl)pyrimidin-4-yl)amino)-2,7-dimethyl-1,2,3,4- tetrahydro-[1,4]oxazepino[2,3-c]quinolin-6(7H)-one or (S)-10-((5- chloro-2-((3S,5R)-3-hydroxy-5-methylpiperidin-1-yl)pyrimidin-4- yl)amino)-2,7-dimethyl-1,2,3,4-tetrahydro- [1,4]oxazepino[2,3-c]quinolin-6(7H)-one [Example 12k] | 7.04
10 | C[C@@H]1CN(c2ncc(Cl)c(Nc3ccc4c(c3)c3c(c(=O)n4C)OCC(F)(F)[C@H](C4CC4)N3)n2)C[C@H](C)C1(F)F [Example 12o, (S)-10-((5-chloro-2-((3S,5R)-4,4-difluoro-3,5-dimethylpiperidin-1-yl)pyrimidin-4-yl)amino)-2-cyclopropyl-3,3-difluoro-7-methyl-1,2,3,4-tetrahydro-[1,4]oxazepino[2,3-c]quinolin-6(7H)-one] | 7.74
11 | Cn1c(=O)c2c(c3cc(Nc4ccnc(Cl)c4C#N)ccc31)NC(C1CC1)CO2 (stereo not shown) [Example 1m, 2-chloro-4((2-cyclopropyl-6-methyl-5-oxo-2,3,5,6-tetrahydro-1H-[1,4]oxazino[2,3-c]quinolin-9-yl)amino)nicotinonitrile] | 6.20
12 | (R)-10-((5-chloro-2-((R)-4,4-difluoro-3- (hydroxymethyl)piperidin-1-yl)pyrimidin-4-yl)amino)-2- cyclopropyl-7-methyl-1,2,3,4-tetrahydro- [1,4]oxazepino[2,3-c]quinolin-6(7H)-one or (R)-10-((5-chloro- 2-((S)-4,4-difluoro-3-(hydroxymethyl)piperidin-1-yl)pyrimidin- 4-yl)amino)-2-cyclopropyl-7-methyl-1,2,3,4-tetrahydro- [1,4]oxazepino[2,3-c]quinolin-6(7H)-one [Example 15b] | 7.51
13 | C[C@H]1CCOc2c(c3cc(Nc4cc(C(=O)O)nc(Cl)c4C#N)ccc3n(C)c2=O)N1 [Example 2a, (S)-6-chloro-5-cyano-4-((2,7-dimethyl-6-oxo-1,2,3,4,6,7-hexahydro-[1,4]ox-azepino[2,3-c]quinolin-10-yl)amino)picolinic acid] | 7.26
14 | CC1Nc2c(c(=O)n(C)c3ccc(Nc4ccnc(Cl)c4C#N)cc23)OCC12CC2 (stereo not shown) [Example 1i, 2-chloro-4-((2′,7′-dimethyl-6′-oxo-1′,2′,6′,7′-tetrahydro-4′H-spiro[cyclopropane-1,3^′-[1,4]oxazepino[2,3-c]quinolin]-10^′-yl)amino)nicotinonitrile] | 5.97
15 | (R)-10-((5-chloro-2-((S)-4,4-difluoro-3- (hydroxymethyl)piperidin-1-yl)pyrimidin-4-yl)amino)-2- cyclopropyl-7-methyl-1,2,3,4-tetrahydro- [1,4]oxazepino[2,3-c]quinolin-6(7H)-one or (R)-10-((5-chloro- 2-((R)-4,4-difluoro-3-(hydroxymethyl)piperidin-1-yl)pyrimidin- 4-yl)amino)-2-cyclopropyl-7-methyl-1,2,3,4-tetrahydro- [1,4]oxazepino[2,3-c]quinolin-6(7H)-one [Example 15c] | 7.55

Same assay, conditions: read-out: IC50 in the HTRF assay

Row | Compound | IC50 [µM]
16 | CC(C)C1CCOc2c(c3cc(Nc4ccnc(Cl)c4C#N)ccc3n(C)c2=O)N1 (stereo not shown) [2-chloro-4-((2-isopropyl-7-methyl-6-oxo-1,2,3,4,6,7-hexahydro-[1,4]oxazepino[2,3-c]quinolin-10-yl)amino)nicotinonitrile] | > 2.5
